Source: BindingDB's records for doi:10.1021/cb900195c (University of Pittsburgh, 2009)

Experiments:
[1] = target: Protein Nef/Tyrosine-protein kinase HCK (Homo sapiens, UniProt P03406+P08631); experiment: In Vitro Kinase Assay; details: 25 °C
Excerpt: (§1) In vitro kinase activity of Nef-Hck complex and Hck alone using Z'-lyte kinase assay system and Tyr2 peptide substrate from Invitrogen.

[2] = target: Tyrosine-protein kinase HCK (Homo sapiens, UniProt P08631); experiment: In Vitro Kinase Assay; details: 25 °C
Excerpt: as §1

Protein Nef/Tyrosine-protein kinase HCK, sequence (P08631 whole entry, other chains not shown): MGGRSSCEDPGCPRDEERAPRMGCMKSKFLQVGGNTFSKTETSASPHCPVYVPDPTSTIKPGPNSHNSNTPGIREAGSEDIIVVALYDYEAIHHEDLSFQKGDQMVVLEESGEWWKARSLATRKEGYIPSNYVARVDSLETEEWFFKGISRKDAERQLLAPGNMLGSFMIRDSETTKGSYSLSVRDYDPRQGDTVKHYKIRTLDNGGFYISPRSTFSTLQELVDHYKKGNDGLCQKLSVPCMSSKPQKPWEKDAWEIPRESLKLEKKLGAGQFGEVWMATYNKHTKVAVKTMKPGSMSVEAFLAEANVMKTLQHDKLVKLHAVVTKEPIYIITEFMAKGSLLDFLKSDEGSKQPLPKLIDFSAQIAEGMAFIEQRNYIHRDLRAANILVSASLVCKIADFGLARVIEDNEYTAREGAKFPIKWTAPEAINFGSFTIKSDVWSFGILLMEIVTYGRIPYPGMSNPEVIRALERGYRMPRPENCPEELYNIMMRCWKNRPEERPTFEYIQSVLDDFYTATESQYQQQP
Tyrosine-protein kinase HCK, sequence (P08631 whole entry): as the sequence (P08631 whole entry, other chains not shown) above

SMILES	IC50 [1]	IC50 [2]
c1ccc(-c2oc3ncnc(NCCCc4ccco4)c3c2-c2ccccc2)cc1 [DFP-4APF]	2 µM	> 30 µM
OCCCCNc1ncnc2oc(-c3ccccc3)c(-c3ccccc3)c12 [DFP-4AB]	16 µM	> 30 µM
OCCCNc1ncnc2oc(-c3ccccc3)c(-c3ccccc3)c12 [DFP-4AP]	5.1 µM	12.8 µM
Nc1ncnc2oc(-c3ccccc3)c(-c3ccccc3)c12 [DFP-4A]	> 30 µM	> 30 µM
